{"source": "patent US11903959B2", "about": "(EMORY UNIVERSITY, priority 2017, dated 2024)", "key": {"[1]": {"system": "EBOV", "assay": "microbe, parasite or virus in culture", "assay_type": "cell-based, Ebola virus", "conditions": "Zaire ebolavirus, Vero"}, "[2]": {"system": "YFV", "assay": "microbe, parasite or virus in culture", "assay_type": "cell-based", "conditions": "Yellow fever virus, Vero 76"}, "[3]": {"conditions": "ICR (CD-1), mouse, in vivo"}, "[4]": {"conditions": "cynomolgus monkey, in vivo, po; for AUC0->24 h / CL / Cmax / t1/2 / tmax: 0.4 mmol/kg"}, "[5]": {"system": "CEM cells", "assay_type": "cell-based", "conditions": "CEM cells (lowest of the range)"}, "[6]": {"system": "CHIKV", "assay": "microbe, parasite or virus in culture", "assay_type": "cell-based, Chikungunya virus"}, "[7]": {"system": "RSV", "assay": "microbe, parasite or virus in culture", "assay_type": "cell-based, respiratory syncytial virus"}, "[8]": {"system": "Junin virus", "assay": "microbe, parasite or virus in culture", "assay_type": "cell-based", "conditions": "Mammarenavirus juninense, Vero, Vero cells"}, "[9]": {"system": "EEEV", "assay": "microbe, parasite or virus in culture", "assay_type": "cell-based", "conditions": "Eastern equine encephalitis virus"}, "[10]": {"assay": "Cytotoxicity (CC50) run with antiviral assays, HG23 cells", "conditions": "human"}, "[11]": {"system": "Enterovirus-68", "assay_type": "cell-based"}, "[12]": {"system": "Flu A H7N9 (High Path)", "assay": "microbe, parasite or virus in culture", "assay_type": "cell-based", "conditions": "Influenza A virus, H7N9, MDCK, MDCK cells"}, "[13]": {"assay": "Plasma pharmacokinetics in dogs after a single dose of EIDD-2800", "conditions": "dog, 140 mg/kg"}, "[14]": {"conditions": "mouse, in vivo"}, "[15]": {"system": "pestivirus and hepacivirus", "conditions": "Stuyver et al., Antimicrob Agents Chemother, 2003; cited from earlier work"}, "[16]": {"conditions": "female, in vivo, po"}, "[17]": {"system": "Flu A H5N1 (Low Path)", "assay": "microbe, parasite or virus in culture", "assay_type": "cell-based", "conditions": "Influenza A virus, H5N1, MDCK"}, "[18]": {"system": "Maporal virus", "assay": "microbe, parasite or virus in culture", "assay_type": "cell-based"}, "[19]": {"assay": "Cytotoxicity (CC50) run with antiviral assays, HeLa-Ohio cells", "conditions": "human"}, "[20]": {"system": "NV", "assay": "microbe, parasite or virus in culture", "assay_type": "cell-based", "conditions": "Norovirus, HG23"}, "[21]": {"system": "Lassa fever virus", "assay": "organism not typed", "assay_type": "cell-based", "conditions": "Vero"}, "[22]": {"system": "Enterovirus-71", "assay_type": "cell-based"}, "[23]": {"system": "POWV", "assay": "microbe, parasite or virus in culture", "assay_type": "cell-based", "conditions": "Powassan virus, BHK, BHK cells"}, "[24]": {"system": "Heartland virus", "assay": "microbe, parasite or virus in culture", "assay_type": "cell-based", "conditions": "Vero"}, "[25]": {"system": "Punta Toro virus", "assay": "microbe, parasite or virus in culture", "assay_type": "cell-based"}, "[26]": {"system": "Flu B", "assay": "microbe, parasite or virus in culture", "assay_type": "cell-based", "conditions": "Influenza B virus, MDCK"}, "[27]": {"system": "Lymphocytic choriomeningitis virus", "assay": "microbe, parasite or virus in culture", "assay_type": "cell-based", "conditions": "Mammarenavirus choriomeningitidis, Vero"}, "[28]": {"assay": "in vivo", "conditions": "female, DBA-1J, mouse, po"}, "[29]": {"assay": "in vivo", "conditions": "dog, 140 mg/kg"}, "[30]": {"system": "Flu A H5N1 (High Path)", "assay": "microbe, parasite or virus in culture", "assay_type": "cell-based", "conditions": "Influenza A virus, H5N1, MDCK, MDCK cells"}, "[31]": {"assay": "Plasma pharmacokinetics in mice after a single dose of EIDD-2800", "conditions": "ICR (CD-1), mouse, oral, 180 mg/kg"}, "[32]": {"system": "ZIKV", "assay": "microbe, parasite or virus in culture", "assay_type": "cell-based", "conditions": "Zika virus, Vero 76"}, "[33]": {"system": "DENV2", "assay": "microbe, parasite or virus in culture", "assay_type": "cell-based", "conditions": "Dengue virus"}, "[34]": {"assay": "in vivo", "conditions": "ICR (CD-1), mouse, 180 mg/kg"}, "[35]": {"system": "WNV", "assay": "microbe, parasite or virus in culture", "assay_type": "cell-based", "conditions": "West Nile virus, Vero 76"}, "[36]": {"assay": "Cytotoxicity (CC50) run with antiviral assays, MA-104 cells", "conditions": "African green monkey, CC50, MA-104 cells, Parainfluenza and RSV table"}, "[37]": {"system": "Tacaribe virus", "assay": "microbe, parasite or virus in culture", "assay_type": "cell-based", "conditions": "Mammarenavirus tacaribeense, Vero, Vero cells"}}, "note": "Values joined by “and” are separate entries in the source; they are usually repeats but may differ in a detail not shown here. Identical values can stand only once. Like-named read-outs stand apart in the source and are kept apart here."}
{"smiles": "O=c1nc(NO)ccn1C1OC(CO)C(O)C1O", "note": "(centres unmarked) [EIDD-1931, 1-(3,4-dihydroxy-5-(hydroxymethyl)tetrahydrofuran-2-yl)-4-(hydroxyamino)pyrimidin-2-one]", "values": [{"measurement": "EC50", "setting": "[1]", "value": 4.7, "unit": "µM"}, {"measurement": "EC90", "setting": "[1]", "value": 25, "unit": "µM"}, {"measurement": "EC90", "setting": "[2]", "value": 26, "unit": "µM"}, {"measurement": "t1/2", "setting": "[3]; 15 mg/kg", "value": 2.9, "unit": "h"}, {"measurement": "t1/2", "setting": "[3]; 225 mg/kg", "value": 4.2, "unit": "h"}, {"measurement": "AUCinf", "setting": "[3]; 750 mg/kg", "value": 228.9, "unit": "µM·h"}, {"measurement": "Brain Cmax", "setting": "[3]; 750 mg/kg", "value": 18.8, "unit": "nmol/g"}, {"measurement": "t1/2", "setting": "[3]; 750 mg/kg", "value": 5.2, "unit": "h"}, {"measurement": "bioavailability", "setting": "[4]", "value": "low bioavailability"}, {"measurement": "F", "setting": "[4]; female", "value": "~3", "unit": "%"}, {"measurement": "AUC0->24 h", "setting": "[4]; female", "value": "7.21 ± 4.21", "unit": "µM·h"}, {"measurement": "CL", "setting": "[4]; female", "value": "1100 ± 527", "unit": "mL/min/kg"}, {"measurement": "Cmax", "setting": "[4]; female", "value": "3.31 ± 1.99", "unit": "µM"}, {"measurement": "t1/2", "setting": "[4]; female", "value": "0.78 ± 0.2", "unit": "h"}, {"measurement": "tmax", "setting": "[4]; female", "value": "0.87 ± 0.75", "unit": "h"}, {"measurement": "AUC0->24 h", "setting": "[4]; male", "value": "5.75 ± 1.99", "unit": "µM·h"}, {"measurement": "CL", "setting": "[4]; male", "value": "1170 ± 312", "unit": "mL/min/kg"}, {"measurement": "Cmax", "setting": "[4]; male", "value": "3.31 ± 1.82", "unit": "µM"}, {"measurement": "t1/2", "setting": "[4]; male", "value": "1.2 ± 1.2", "unit": "h"}, {"measurement": "tmax", "setting": "[4]; male", "value": "0.75 ± 0.28", "unit": "h"}, {"measurement": "selectivity index", "setting": "[5]", "value": 8}, {"measurement": "EC50", "setting": "[6]", "value": 1.8, "unit": "µM"}, {"measurement": "EC50", "setting": "[6]; Chikungunya virus, Vero", "value": 1.28, "unit": "µM"}, {"measurement": "EC50", "setting": "[7]", "value": 27.6, "unit": "µM"}, {"measurement": "EC50", "setting": "[7]; human respiratory syncytial virus, MA104", "value": 14, "unit": "µM"}, {"measurement": "EC50", "setting": "[8]", "value": 18.4, "unit": "µM"}, {"measurement": "EC90", "setting": "[9]; Vero 76", "value": 1.68, "unit": "µM"}, {"measurement": "EC50", "setting": "[9]; Vero, EEE virus, Vero cell cytopathic effect (CPE) model", "value": 1.08, "unit": "µM"}, {"measurement": "CC50", "setting": "[10]", "value": "> 100", "unit": "µM"}, {"measurement": "EC50", "setting": "[11]", "value": "1.28 µM and 1.16 µM"}, {"measurement": "EC50", "setting": "[12]", "value": "> 48", "unit": "µM"}, {"measurement": "AUC(0-inf)", "setting": "[13]", "value": "498 ± 40.4", "unit": "µM·h"}, {"measurement": "tmax", "setting": "[13]", "value": "1.4 ± 0.5", "unit": "h"}, {"measurement": "body weight", "setting": "[14]", "value": "weight loss was observed"}, {"measurement": "antiviral activities", "setting": "[15]", "value": "antipestivirus and antihepacivirus activities"}, {"measurement": "t1/2", "setting": "[16]; 4 mg/kg", "value": "8.2 ± 1.7", "unit": "h"}, {"measurement": "t1/2", "setting": "[16]; 20 mg/kg", "value": "4.7 ± 1.3", "unit": "h"}, {"measurement": "t1/2", "setting": "[16]; outbred, 128 mg/kg", "value": "5.1 ± 0.8", "unit": "h"}, {"measurement": "t1/2", "setting": "[16]; outbred, 512 mg/kg", "value": "4.2 ± 0.6", "unit": "h"}, {"measurement": "EC50", "setting": "[17]", "value": 1.28, "unit": "µM"}, {"measurement": "EC50", "setting": "[18]", "value": "> 124", "unit": "µM"}, {"measurement": "EC50", "setting": "[18]; Maporal virus, Vero 76", "value": 84, "unit": "µM"}, {"measurement": "CC50", "setting": "[19]", "value": "> 40", "unit": "µM"}, {"measurement": "EC50", "setting": "[20]", "value": "> 100", "unit": "µM"}, {"measurement": "EC90", "setting": "[20]", "value": "> 100", "unit": "µM"}, {"measurement": "EC50", "setting": "[21]", "value": 4.04, "unit": "µM"}, {"measurement": "EC50", "setting": "[22]", "value": "3.44 µM and 3.36 µM"}, {"measurement": "EC50", "setting": "[23]", "value": 11.2, "unit": "µM"}, {"measurement": "EC90", "setting": "[24]", "value": 7.84, "unit": "µM"}, {"measurement": "EC50", "setting": "[25]", "value": 20.4, "unit": "µM"}, {"measurement": "EC50", "setting": "[25]; Punta Toro virus, Vero 76", "value": 20, "unit": "µM"}, {"measurement": "EC50", "setting": "[26]", "value": "< 0.4", "unit": "µM"}, {"measurement": "EC90", "setting": "[27]", "value": 25.2, "unit": "µM"}, {"measurement": "half-life", "setting": "[28]", "value": "4.1 to 4.7", "unit": "h"}, {"measurement": "Cmax", "setting": "[28]; 30 mg/kg", "value": 3000, "unit": "ng/mL"}, {"measurement": "Cmax", "setting": "[28]; 100 mg/kg", "value": 7700, "unit": "ng/mL"}, {"measurement": "Cmax", "setting": "[28]; 300 mg/kg", "value": 11700, "unit": "ng/mL"}, {"measurement": "tmax", "setting": "[28]; 300 mg/kg", "value": "0.25 to 0.5", "unit": "h"}, {"measurement": "Cmax", "setting": "[29]", "value": "113 ± 21.1", "unit": "µM"}, {"measurement": "half-life", "setting": "[29]", "value": "4.8 ± 1", "unit": "h"}, {"measurement": "EC50", "setting": "[30]", "value": "> 88", "unit": "µM"}, {"measurement": "AUC(0-inf)", "setting": "[31]", "value": 42.5, "unit": "µM·h"}, {"measurement": "Cmax", "setting": "[31]", "value": 11.4, "unit": "µM"}, {"measurement": "tmax", "setting": "[31]", "value": 0.5, "unit": "h"}, {"measurement": "EC90", "setting": "[32]", "value": 2.36, "unit": "µM"}, {"measurement": "EC50", "setting": "[33]; DENV2, Vero 76", "value": 14, "unit": "µM"}, {"measurement": "EC50", "setting": "[33]; DENV2, Vero 76, DENV2, Vero76 cells", "value": 12.8, "unit": "µM"}, {"measurement": "half-life", "setting": "[34]", "value": 1.86, "unit": "h"}, {"measurement": "EC50", "setting": "[35]", "value": "> 400", "unit": "µM"}, {"measurement": "CC50", "setting": "[36]", "value": 272, "unit": "µM"}, {"measurement": "EC50", "setting": "[37]", "value": 14.4, "unit": "µM"}]}
